Measurements reported in the supplement of paper PMC10307832.

Tests used:
Test in all cases: relative viability (nuclei count vs DMSO), 5 days (fraction); higher = more cells survive
[1] = compound: NCC(=O)Nc1ccc(-n2nc(C(F)(F)F)cc2-c2ccc3c(ccc4ccccc43)c2)cc1 + Cc1nc(Nc2ncc(C(=O)Nc3c(C)cccc3Cl)s2)cc(N2CCN(CCO)CC2)n1 [Dasatinib] (partner 0.075 µM)
Procedure, shortened: (§1)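 After 5 days of treatment, lung cancer cells in 1536-well plates were fixed and stained in a single step (final 0.05% Triton X-100, 1% formaldehyde, 1 ug/ml Hoechst) and their nuclei counted on 4× images. Treatment had been applied by pin tool the day after seeding as one drug alone or as a fixed anchor-drug dose with five library-drug doses (not always all listed) in √10 steps. Relative viability is the nuclei count of treated wells divided by that of vehicle wells, and values are medians of duplicate plates.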

[2] = compound: C1CSC2=C(C(=O)N1)SC3=C2C=C(C=C3)O [kb NB 142-70] + N=C(N)NC(=N)NCCc1ccccc1 [Phenformin] (partner 250 µM)
Procedure, shortened: as §1

[3] = compound: C1CSC2=C(C(=O)N1)SC3=C2C=C(C=C3)O [kb NB 142-70] + O=C(CCCCCCC(=O)Nc1ccccc1)NO [Vorinostat] (partner 1 µM)
Procedure, shortened: as §1

[4] = compound: NCC(=O)Nc1ccc(-n2nc(C(F)(F)F)cc2-c2ccc3c(ccc4ccccc43)c2)cc1 + O=C(CCCCCCC(=O)Nc1ccccc1)NO [Vorinostat] (partner 1 µM)
Procedure, shortened: as §1

Cell Line	relative viability ([1]; first compound 0.02 µM)	relative viability ([1]; first compound 0.06325 µM)	relative viability ([1]; first compound 0.2 µM)	relative viability ([1]; first compound 0.6325 µM)	relative viability ([1]; first compound 2 µM)	relative viability ([2]; first compound 0.1 µM)	relative viability ([2]; first compound 1 µM)	relative viability ([2]; first compound 3.162 µM)	relative viability ([3]; first compound 0.1 µM)	relative viability ([3]; first compound 1 µM)	relative viability ([3]; first compound 3.162 µM)	relative viability ([4]; first compound 0.02 µM)	relative viability ([4]; first compound 0.06325 µM)	relative viability ([4]; first compound 0.2 µM)	relative viability ([4]; first compound 0.6325 µM)	relative viability ([4]; first compound 2 µM)
NCI-H1975	0.318	0.387	0.443	0.38	0.387	0.394	0.366	0.235	0.708	0.816	0.554	0.728	0.729	0.804	0.704	0.747
CAL-12T	0.494	0.691	0.454	0.425	0.495	0.565	0.601	0.485	0.767	0.663	0.564	0.692	0.822	1.04	0.684	0.916
NCI-H1623	0.544	0.676	0.531	0.488	0.528	0.599	0.617	0.591	–	–	–	–	–	–	–	–
HCC-44	–	–	–	–	–	0.405	0.256	0.148	1.09	1.14	1.21	1.17	1.19	1.03	1.05	1.12
EKVX	0.554	0.6	0.648	0.527	0.488	0.24	0.238	0.244	0.677	0.481	0.814	0.726	0.83	0.751	0.724	0.731
NCI-H1651	0.319	0.447	0.346	0.494	0.462	0.327	0.321	0.205	0.543	0.579	0.566	0.593	0.442	0.543	0.612	0.554
NCI-H1944	0.199	0.221	0.208	0.211	0.24	0.202	0.205	0.2	0.609	0.566	0.595	0.546	0.695	0.554	0.558	0.526
SW 1573	0.471	0.383	0.586	0.471	0.424	0.378	0.264	0.175	0.655	0.426	0.327	0.647	0.749	0.831	0.703	0.661
A-427	–	0.692	0.724	0.682	0.672	0.466	0.37	0.248	0.864	0.969	0.932	0.864	0.825	0.908	0.839	0.982
NCI-H2347	0.36	0.365	0.301	0.326	0.298	0.412	0.349	0.381	0.629	0.641	0.599	0.604	0.688	0.685	0.611	0.673
NCI-H1355	0.664	0.813	0.723	0.754	0.756	0.485	0.451	0.453	0.605	0.643	0.657	0.636	0.709	0.676	0.655	0.653
NCI-H358	0.165	0.138	0.153	0.173	0.189	0.279	0.187	0.0752	0.699	0.654	0.127	0.735	0.728	0.694	0.768	0.653
PC-3 [JPC-3]	1.08	0.981	1.02	1.03	1.11	0.475	0.472	0.474	0.814	0.846	0.458	0.902	0.854	0.778	1.03	0.822
NCI-H2228	0.561	0.571	0.523	0.472	0.533	0.263	0.317	0.178	0.988	0.557	0.512	0.727	0.599	0.685	0.723	0.663
HOP-62	0.725	0.629	0.699	0.652	0.679	0.666	0.663	0.534	0.69	0.713	0.579	0.536	0.534	0.668	0.501	0.7
HARA	0.227	0.241	0.233	0.256	0.296	0.486	0.473	0.344	0.449	0.438	0.563	0.552	0.518	0.596	0.578	0.551
NCI-H838	0.233	0.305	0.273	0.302	0.285	0.561	0.575	0.571	0.782	0.77	0.778	0.772	0.708	0.857	0.681	0.728
NCI-H1755	0.435	0.44	0.431	0.45	0.414	0.586	0.587	0.638	0.709	0.801	0.674	0.758	0.824	0.788	0.768	0.833
HCC-78	0.466	0.432	0.357	0.425	0.429	0.72	0.673	0.651	0.407	0.602	0.483	0.398	0.481	0.472	0.466	0.454
IA-LM	–	–	–	–	–	–	–	–	0.957	0.994	1.16	0.989	1.08	0.981	0.908	0.896
NCI-H322M	0.268	0.266	0.251	0.271	0.261	0.755	0.795	0.86	0.942	1.06	0.926	0.993	0.957	0.836	0.927	0.984
